{"source": "patent US9833497B2", "about": "“Human originated EGF domain proteins and use of the same” (CHENGDU SOURCEBIO LIMITED-LIABILITY COMPANY, priority 2013, dated 2017)", "format_in_all_cases": "cell-based", "key": {"[1]": {"system": "E. coli DH5α", "assay": "Antibacterial activity: MIC and growth curve against E. coli DH5α in 96-well plate", "settings": "minimal inhibitory concentration against E. coli DH5α; 96-well plate, 5×10^5 CFU/mL, 37° C., judged after 8 h", "in_short": "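MIC taken as lowest protein level with no bacterial growth, tracked by A600 every 30 min during 37 °C, 175 rpm culture. Two-fold protein series 50-12.5 μg/mL final, triplicate wells, against 5×10^5 CFU/mL of LB-washed mid-log cells.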"}, "[2]": {"system": "E. coli BL21", "assay": "MIC against Gram-negative bacteria: E. coli BL21", "in_short": "(§1)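 Bacteria grown in LB at 37° C to McFarland 0.5, resuspended and seeded at 5×10^5 CFU/mL in 96-well plates. Purified human EGF-domain proteins two-fold serially diluted, triplicate wells; cultured at 37° C, shaking 175 rpm. MIC = lowest protein concentration with no growth.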"}, "[3]": {"system": "Pseudomonas aeruginosa", "assay": "MIC against Gram-negative bacteria: Pseudomonas aeruginosa", "in_short": "as §1"}, "[4]": {"system": "Klebsiella pneumonia", "assay": "MIC against Gram-negative bacteria: Klebsiella pneumonia", "in_short": "as §1"}, "[5]": {"system": "Enterobacter cloacae", "assay": "MIC against Gram-negative bacteria: Enterobacter cloacae", "in_short": "as §1"}, "[6]": {"system": "Aeromonas hydrophila", "assay": "MIC against Gram-negative bacteria: Aeromonas hydrophila", "in_short": "as §1"}, "[7]": {"system": "Citrobacter diversus", "assay": "MIC against Gram-negative bacteria: Citrobacter diversus", "in_short": "as §1"}, "[8]": {"system": "Moraxella catarrhalis", "assay": "MIC against Gram-negative bacteria: Moraxella catarrhalis", "in_short": "as §1"}, "[9]": {"system": "Proteus mirabilis", "assay": "MIC against Gram-negative bacteria: Proteus mirabilis", "in_short": "as §1"}, "[10]": {"system": "Proteus vulgaris", "assay": "MIC against Gram-negative bacteria: Proteus vulgaris", "in_short": "as §1"}, "[11]": {"system": "Serratia marcescens", "assay": "MIC against Gram-negative bacteria: Serratia marcescens", "in_short": "as §1"}, "[12]": {"settings": "96-well plate, 5×10^5 CFU/mL, 37° C., 10 h"}}, "data": [{"substance": "PRT1320 (PSNPCSHPDRGGCSENAECVPGSLGTHHCTCHKGWSGDGRVCV; listed as Homo sapiens)", "values": [{"measurement": "MIC", "setting": "[1]", "value": 25, "unit": "µg/mL"}, {"measurement": "MIC against E. coli BL21", "setting": "[2]; E. coli BL21, 96-well plate, 5×10^5 CFU/mL, 37° C., 10 h", "value": 12.5, "unit": "µg/mL"}, {"measurement": "MIC against P. aeruginosa", "setting": "[3]; Pseudomonas aeruginosa, 96-well plate, 5×10^5 CFU/mL, 37° C., 10 h", "value": 25, "unit": "µg/mL"}, {"measurement": "MIC against K. pneumonia", "setting": "[4]; Klebsiella pneumonia, 96-well plate, 5×10^5 CFU/mL, 37° C., 10 h", "value": 12.5, "unit": "µg/mL"}, {"measurement": "MIC against E. cloacae", "setting": "[5]; Enterobacter cloacae, 96-well plate, 5×10^5 CFU/mL, 37° C., 10 h", "value": 25, "unit": "µg/mL"}, {"measurement": "MIC against A. hydrophila", "setting": "[6]; Aeromonas hydrophila, 96-well plate, 5×10^5 CFU/mL, 37° C., 10 h", "value": 12.5, "unit": "µg/mL"}, {"measurement": "MIC against C. diversus", "setting": "[7]; Citrobacter diversus, 96-well plate, 5×10^5 CFU/mL, 37° C., 10 h", "value": 12.5, "unit": "µg/mL"}, {"measurement": "MIC against M. catarrhalis", "setting": "[8]; Moraxella catarrhalis, 96-well plate, 5×10^5 CFU/mL, 37° C., 10 h", "value": 12.5, "unit": "µg/mL"}, {"measurement": "MIC against P. mirabilis", "setting": "[9]; Proteus mirabilis, 96-well plate, 5×10^5 CFU/mL, 37° C., 10 h", "value": 12.5, "unit": "µg/mL"}, {"measurement": "MIC against P. vulgaris", "setting": "[10]; Proteus vulgaris, 96-well plate, 5×10^5 CFU/mL, 37° C., 10 h", "value": 50, "unit": "µg/mL"}, {"measurement": "MIC against S. marcescens", "setting": "[11]; Serratia marcescens, 96-well plate, 5×10^5 CFU/mL, 37° C., 10 h", "value": 12.5, "unit": "µg/mL"}]}, {"substance": "PRT500 (CNCDPVGSLSSVCIKDDLHSDLHNGKQPGQCPCKEGYTGEKCDRCQLGYKDYPTCVS; listed as Homo sapiens)", "values": [{"measurement": "MIC", "setting": "[1]", "value": 25, "unit": "µg/mL"}, {"measurement": "MIC against E. coli BL21", "setting": "[2]; [12]", "value": 50, "unit": "µg/mL"}, {"measurement": "MIC against P. aeruginosa", "setting": "[3]; [12]", "value": 25, "unit": "µg/mL"}, {"measurement": "MIC against K. pneumonia", "setting": "[4]; [12]", "value": 12.5, "unit": "µg/mL"}, {"measurement": "MIC against E. cloacae", "setting": "[5]; [12]", "value": 25, "unit": "µg/mL"}, {"measurement": "MIC against A. hydrophila", "setting": "[6]; [12]", "value": 50, "unit": "µg/mL"}, {"measurement": "MIC against C. diversus", "setting": "[7]; [12]", "value": 25, "unit": "µg/mL"}, {"measurement": "MIC against M. catarrhalis", "setting": "[8]; [12]", "value": 12.5, "unit": "µg/mL"}, {"measurement": "MIC against P. mirabilis", "setting": "[9]; [12]", "value": 25, "unit": "µg/mL"}, {"measurement": "MIC against P. vulgaris", "setting": "[10]; [12]", "value": 50, "unit": "µg/mL"}, {"measurement": "MIC against S. marcescens", "setting": "[11]; [12]", "value": 25, "unit": "µg/mL"}]}, {"substance": "PRT469 (NCSTTCFNGGTCFYPGKCICPPGLEGEQCE; listed as Homo sapiens)", "values": [{"measurement": "MIC", "setting": "[1]", "value": 12.5, "unit": "µg/mL"}, {"measurement": "MIC against E. coli BL21", "setting": "[2]; [12]", "value": 25, "unit": "µg/mL"}, {"measurement": "MIC against P. aeruginosa", "setting": "[3]; [12]", "value": 12.5, "unit": "µg/mL"}, {"measurement": "MIC against K. pneumonia", "setting": "[4]; [12]", "value": 25, "unit": "µg/mL"}, {"measurement": "MIC against E. cloacae", "setting": "[5]; [12]", "value": 50, "unit": "µg/mL"}, {"measurement": "MIC against A. hydrophila", "setting": "[6]; [12]", "value": 25, "unit": "µg/mL"}, {"measurement": "MIC against C. diversus", "setting": "[7]; [12]", "value": 12.5, "unit": "µg/mL"}, {"measurement": "MIC against M. catarrhalis", "setting": "[8]; [12]", "value": 50, "unit": "µg/mL"}, {"measurement": "MIC against P. mirabilis", "setting": "[9]; [12]", "value": 12.5, "unit": "µg/mL"}, {"measurement": "MIC against P. vulgaris", "setting": "[10]; [12]", "value": 50, "unit": "µg/mL"}, {"measurement": "MIC against S. marcescens", "setting": "[11]; [12]", "value": 12.5, "unit": "µg/mL"}]}, {"substance": "PRT263 (CSKNNGGCSPYATCKSTGDGQRTCTCDTAHTVGDGLTC; listed as Homo sapiens)", "values": [{"measurement": "MIC", "setting": "[1]", "value": 25, "unit": "µg/mL"}, {"measurement": "MIC (μg/mL) E. coli BL21", "setting": "[2]; E. coli BL21, 10 h cultivation at 37° C., 5×10^5 CFU/mL", "value": 25, "unit": "µg/mL"}, {"measurement": "MIC (μg/mL) P. aeruginosa", "setting": "[3]; P. aeruginosa, 10 h cultivation at 37° C., 5×10^5 CFU/mL", "value": 12.5, "unit": "µg/mL"}, {"measurement": "MIC (μg/mL) K. pneumonia", "setting": "[4]; K. pneumonia, 10 h cultivation at 37° C., 5×10^5 CFU/mL", "value": 25, "unit": "µg/mL"}, {"measurement": "MIC (μg/mL) E. cloacae", "setting": "[5]; E. cloacae, 10 h cultivation at 37° C., 5×10^5 CFU/mL", "value": 12.5, "unit": "µg/mL"}, {"measurement": "MIC (μg/mL) A. hydrophila", "setting": "[6]; A. hydrophila, 10 h cultivation at 37° C., 5×10^5 CFU/mL", "value": 25, "unit": "µg/mL"}, {"measurement": "MIC (μg/mL) C. diversus", "setting": "[7]; C. diversus, 10 h cultivation at 37° C., 5×10^5 CFU/mL", "value": 12.5, "unit": "µg/mL"}, {"measurement": "MIC (μg/mL) M. catarrhalis", "setting": "[8]; M. catarrhalis, 10 h cultivation at 37° C., 5×10^5 CFU/mL", "value": 12.5, "unit": "µg/mL"}, {"measurement": "MIC (μg/mL) P. mirabilis", "setting": "[9]; P. mirabilis, 10 h cultivation at 37° C., 5×10^5 CFU/mL", "value": 12.5, "unit": "µg/mL"}, {"measurement": "MIC (μg/mL) P. vulgaris", "setting": "[10]; P. vulgaris, 10 h cultivation at 37° C., 5×10^5 CFU/mL", "value": 12.5, "unit": "µg/mL"}, {"measurement": "MIC (μg/mL) S. marcescens", "setting": "[11]; S. marcescens, 10 h cultivation at 37° C., 5×10^5 CFU/mL", "value": 50, "unit": "µg/mL"}]}, {"substance": "PRT1375 (SIRTCPSNCHGRGRCEEGRCLCDPGYTGPTC; listed as Homo sapiens)", "values": [{"measurement": "MIC", "setting": "[1]", "value": 12.5, "unit": "µg/mL"}, {"measurement": "MIC against E. coli BL21", "setting": "[2]; E. coli BL21, 5×10^5 CFU/mL, 10 h cultivation at 37° C.", "value": 12.5, "unit": "µg/mL"}, {"measurement": "MIC against P. aeruginosa", "setting": "[3]; Pseudomonas aeruginosa, 5×10^5 CFU/mL, 10 h cultivation at 37° C.", "value": 12.5, "unit": "µg/mL"}, {"measurement": "MIC against K. pneumonia", "setting": "[4]; Klebsiella pneumonia, 5×10^5 CFU/mL, 10 h cultivation at 37° C.", "value": 12.5, "unit": "µg/mL"}, {"measurement": "MIC against E. cloacae", "setting": "[5]; Enterobacter cloacae, 5×10^5 CFU/mL, 10 h cultivation at 37° C.", "value": 12.5, "unit": "µg/mL"}, {"measurement": "MIC against A. hydrophila", "setting": "[6]; Aeromonas hydrophila, 5×10^5 CFU/mL, 10 h cultivation at 37° C.", "value": 25, "unit": "µg/mL"}, {"measurement": "MIC against C. diversus", "setting": "[7]; Citrobacter diversus, 5×10^5 CFU/mL, 10 h cultivation at 37° C.", "value": 12.5, "unit": "µg/mL"}, {"measurement": "MIC against M. catarrhalis", "setting": "[8]; Moraxella catarrhalis, 5×10^5 CFU/mL, 10 h cultivation at 37° C.", "value": 25, "unit": "µg/mL"}, {"measurement": "MIC against P. mirabilis", "setting": "[9]; Proteus mirabilis, 5×10^5 CFU/mL, 10 h cultivation at 37° C.", "value": 50, "unit": "µg/mL"}, {"measurement": "MIC against P. vulgaris", "setting": "[10]; Proteus vulgaris, 5×10^5 CFU/mL, 10 h cultivation at 37° C.", "value": 25, "unit": "µg/mL"}, {"measurement": "MIC against S. marcescens", "setting": "[11]; Serratia marcescens, 5×10^5 CFU/mL, 10 h cultivation at 37° C.", "value": 12.5, "unit": "µg/mL"}]}, {"substance": "PRT932 (QVNECLSNPCIHGNCTGGLSGYKCLCDAGWVGINCE; listed as Homo sapiens)", "values": [{"measurement": "MIC", "setting": "[1]", "value": 25, "unit": "µg/mL"}, {"measurement": "MIC", "setting": "[2]; E. coli BL21, 10 h cultivation at 37° C.", "value": 50, "unit": "µg/mL"}, {"measurement": "MIC", "setting": "[3]; P. aeruginosa, 10 h cultivation at 37° C.", "value": 12.5, "unit": "µg/mL"}, {"measurement": "MIC", "setting": "[4]; K. pneumonia, 10 h cultivation at 37° C.", "value": 12.5, "unit": "µg/mL"}, {"measurement": "MIC", "setting": "[5]; E. cloacae, 10 h cultivation at 37° C.", "value": 25, "unit": "µg/mL"}, {"measurement": "MIC", "setting": "[6]; A. hydrophila, 10 h cultivation at 37° C.", "value": 12.5, "unit": "µg/mL"}, {"measurement": "MIC", "setting": "[7]; C. diversus, 10 h cultivation at 37° C.", "value": 25, "unit": "µg/mL"}, {"measurement": "MIC", "setting": "[8]; M. catarrhalis, 10 h cultivation at 37° C.", "value": 12.5, "unit": "µg/mL"}, {"measurement": "MIC", "setting": "[9]; P. mirabilis, 10 h cultivation at 37° C.", "value": 25, "unit": "µg/mL"}, {"measurement": "MIC", "setting": "[10]; P. vulgaris, 10 h cultivation at 37° C.", "value": 12.5, "unit": "µg/mL"}, {"measurement": "MIC", "setting": "[11]; S. marcescens, 10 h cultivation at 37° C.", "value": 12.5, "unit": "µg/mL"}]}]}
